In a melting point compilation (Tetko et al.; mined from patent text by program, amines drawn as free bases though some values may be those of a salt) one finds melting point data, which are given here for 87 compounds.

As a reminder, the melting point is the temperature, or range, at which the solid turns liquid.

Structures are written as SMILES.

For `COc1cccc(OC)c1/C=C/S(=O)(=O)CS(=O)(=O)/C=C/c1c(OC)cccc1OC`, the melting point was 118 to 120 °C.
The value for `CCC(C)COC(=O)Oc1ccc(-c2ccc(O)cc2)cc1` (configuration not stated) was 129 to 130 °C.
The value for `CCCCC[C@@H](CC(=O)NO)C(=O)N[C@H](CC(C)C)C(=O)N[C@@H](C)C(N)=O` was 134 to 136 °C; that for `CC(=O)NCCC1CCc2ccc3nc(-c4ccccc4)oc3c21` (configuration not stated) was 124 to 126 °C; that for `COC(=O)c1ccc(Cn2c(C)nc3ccccc32)cc1` was 100 to 101 °C.
In the case of `O=C(Oc1ccccc1)N1CCc2[nH]c3c(cnc4cc(Cl)ccc43)c2C1` it was over 250 °C; in that of `CCN(CC)Cc1nc2cc(OC)c(OC)cc2c(-c2ccc(OC)c(OC)c2)c1C(=O)c1ccccc1`, 150 to 151 °C; in that of `Cc1c(C)c2c(c(C)c1NC(=O)CC(C)(C)C)C(c1ccc(C3CCCCC3)cc1)CO2` (configuration not stated), 146 to 148 °C.
`CC(=O)OC1CCC2(C)C(CCC3C2CC(OC(C)=O)C2(C)C(C(C)CCC=O)CCC32)C1` (configuration not stated): the melting point turned out to be 145 °C.
In the case of `CCOC(=O)/C=C(C)/C=C/C(Br)=C(/C)c1ccc2c(c1)C(C)(C)CCC2(C)C` it was 97 to 98.5 °C; in that of `C=C(CS(=O)(=O)c1ccc(C)cc1)c1ccccc1`, 103 °C; in that of `CN(C)C(=O)Nc1coc2ccccc2c1=O`, 148 °C.
The value for `O=C(O)C(Cc1ccccc1)Oc1ccc(-c2ccc(-c3c(Cc4ccccc4)oc4cccnc34)cc2)cc1` (configuration not stated) was 85 to 88 °C.
With `CNCC1Cc2cccc(-c3c(C)cccc3C)c2O1` (configuration not stated), the melting point is over 250 °C.
The value for `CS(=O)(=O)c1ccc(-n2nc(C(F)(F)F)cc2-c2ccc(-c3ccco3)cc2)cc1F` was 129 to 130 °C.
In the case of `COC(=O)c1ccc(N2CCNCC2)cc1` it was 95 to 97 °C; in that of `Nc1nc(F)nc(OC(F)(F)F)n1`, 138 to 139 °C.
For the compound `Cc1cc(C)c2c(c1)C=C(/C=C/C=C/C=C/C(=O)O)C(C)(C)O2`, the melting point fell in the range of 200 to 202 °C.
The value for `COCc1cc2c(nc(C)n2C)c(O)c1CCC(=O)c1ccccc1C` was 163 °C; that for `CC(C)C(NC(=O)c1ccccn1)C(=O)NC(Cc1ccccc1)C(O)C(O)C(Cc1ccccc1)NC(=O)C(NC(=O)c1ccccn1)C(C)C` (configuration not stated) was 167 to 171 °C; that for `Cc1ncn(Cc2ccc(N)cc2C(F)(F)F)c1C` was 185 to 186 °C.
Turning to `CSc1sc(-c2nccs2)c2c1C(=O)CCC2(C)C`, the melting point was in the range of 188 to 190 °C.
In the case of `COc1ccc(-c2cn[nH]c2N)cc1` it was 198 to 201 °C.
In the case of `O=C1Nc2cc(NC(=O)c3c[nH]cc(-c4ccc(F)cc4)c3=O)c(F)cc2/C1=C/c1ccc[nH]1` it was over 300 °C.
In the case of `O=[N+]([O-])c1cccc(-n2cccn2)c1` it was 85 to 87 °C.
Regarding `O=C(OCc1cc(COC(=O)c2ccc(O)c(F)c2)cc(COC(=O)c2ccc(O)c(F)c2)c1)c1ccc(O)c(F)c1`, the melting point was found to be 88 °C.
As for `C[C@H]1CN(C(c2ccccc2)(c2ccccc2)c2ccccc2)CCN1c1ccc(C(F)(F)F)c(Cl)n1`, the melting point stood at 210 °C.
In the case of `CCCC(=O)c1cnc2c(OC)cccc2c1Nc1ccccc1COC` it was 128 to 130 °C; in that of `COc1cccc(OC)c1N(COC(C)C)C(=O)CCl`, 85 to 90 °C.
Take `Cc1cc(C(=O)NC2=NC(C)(C)CC2(c2ccccc2)c2ccccc2)[nH]n1`: the melting point is 193 to 195 °C.
Regarding `CC1(OCc2ccccc2F)COC(c2cccc(F)c2)OC1` (configuration not stated), the melting point lay within 83 to 84 °C.
In the case of `Cn1cc(CC2CCN(CCN3c4cccc5cccc(c45)S3(=O)=O)CC2)c2cc(F)ccc21` it was 150 to 152 °C; in that of `CNc1nc(-c2cccc(NC(=O)c3ccc4c(c3)OCO4)c2)c2cc(OC)c(OC)cc2n1`, 205 to 207 °C; in that of `O=C(O)CN1C(=O)C(=Cc2ccc(OCCc3ccccc3)c(OC(c3ccccc3)C(F)(F)F)c2)SC1=S` (configuration not stated), 168 °C.
The value for `O=[N+]([O-])c1ccc2c(c1)OC(C1(CCCCCl)OCCO1)CO2` (configuration not stated) was 74 to 76 °C; that for `CCNc1cc(C)c(S(=O)(=O)C[N+](=O)[O-])c(C)c1` was 143 °C.
`O=C(c1ccccc1)c1ccccc1Nc1ncccc1[N+](=O)[O-]`: the melting point was determined as 85 °C.
The compound `OC(Cn1ccnc1)(c1ccccc1)c1ccc(-c2ccccc2)cc1` (configuration not stated) displayed a melting point of 224 °C.
In the case of `CCOC(=O)c1cc(NCc2ccccc2)c(Oc2cccc(C(F)(F)F)c2)c(S(N)(=O)=O)c1` it was 166 to 168 °C.
In the case of `Cc1ccccc1COCC1OC(n2cc(C(F)(F)F)c(=O)[nH]c2=O)CC1O` (configuration not stated) it was 178 to 179 °C; in that of `CCS(=O)(=O)N[C@H]1CC[C@H](CCN2CCC(c3cccc4c3CCO4)CC2)CC1`, 131 °C.
`O=C1c2ccc(O)cc2OCN1CCO` returned a melting point of 182 to 184 °C.
The compound `CCC1CN(c2nc(C)nc(NC)n2)c2ccccc21` (configuration not stated) yielded a melting point of 168 to 170 °C.
The compound `CN(C)c1ccc(-c2nc(S)nnc2-c2ccc(F)cc2)cc1` returned a melting point of 262 to 264 °C.
The value for `O=C1N(CC2CCOCC2)c2ccccc2C12COc1cc3c(cc12)OCO3` (configuration not stated) was 142 to 144 °C; that for `Cn1ccn(-c2ccc(N3CCN(c4ccc(O)cc4)CC3)cc2)c1=O` was 283 °C; that for `CC(=O)SCC1=C(CSC(C)=O)C(=O)C(CSC(C)=O)=C(CSC(C)=O)C1=O` was 133 to 135 °C.
The value for `CC(C)(C)OC(=O)Nc1cccc(C(=O)NCCC(=O)OCc2ccccc2)c1` was 130 to 131 °C; that for `Cc1cc(C(=O)N2CCCC(C)C2)ccc1[N+](=O)[O-]` (configuration not stated) was 82 to 82.8 °C; that for `COc1cccc(C(N)=O)c1SSc1c(OC)cccc1C(N)=O` was 188 to 189 °C.
The value for `O=[N+]([O-])c1ccc(-n2cncn2)cc1` was 198 °C; that for `Cc1cccc2nnc(-c3ccccc3)c(Cl)c12` was 128 °C.
As for `CCCN1Cc2c(ncnc2C2C(=O)Nc3ccc(C#N)cc32)N1` (configuration not stated), the melting point was over 300 °C.
In the case of `COc1cccc2nc3c(c(N)c12)CCCC3` it was 187 to 188 °C.
The compound `CCCC1=C(C(=O)OCC)C(c2ccccc2C#N)c2c[nH]nc2N1` (configuration not stated) registered a melting point of 211 °C.
In the case of `CC(=O)NCC(C)(C)c1ccc(C(=O)Nc2cn3cc(-n4ccnc4)ccc3n2)cc1` it was 242 to 244 °C; in that of `O=C(Nc1nc(-c2ccco2)c(-c2ccncc2)s1)c1ccn(Cc2ccccc2)c(=O)c1`, 244 to 248 °C.
Compound `Cn1c(C(F)(F)F)cc(=O)n(-c2cc(Oc3ncccc3[N+](=O)[O-])c(Cl)cc2F)c1=O` registered a melting point of 177 to 179 °C.
In the case of `Cc1cccc2cc3c(=O)[nH]cc(C(=O)O)c3nc12` it was over 300 °C; in that of `NCCCP(=O)(O)C1CCCCC1`, 202 to 203 °C; in that of `CCN(Cc1sc(-c2ccc(C(F)(F)F)cc2)nc1C)c1cc(C)c(OCC(=O)O)c(C)c1`, 161 to 162 °C.
In the case of `CN(C)c1cc2c(C(F)(F)F)cccc2s1` it was 70 to 73 °C.
In the case of `CCOC(=O)c1ncn2c3cccc(I)c3c(=O)n(C)c12` it was 266 to 267 °C; in that of `CCCCn1c(=O)c(NC(=O)Nc2c(C(C)C)cc(CN)cc2C(C)C)c(-c2cccc(OC)c2)c2cccnc21`, 186 to 187 °C; in that of `CCOC(=O)COc1cc(-c2nn(C)c(C(F)(F)F)c2Cl)c(F)cc1Cl`, 130 to 131 °C.
For `COc1c(N2CCC(O)C(CO)C2)c(F)cc2c(=O)c(C(=O)O)cn(C3CC3)c12` (configuration not stated), the melting point fell in the range of 115 to 125 °C.
For `c1ccc(-c2ccc(-c3nc4c5ccccc5ccn4n3)cc2)cc1`, the melting point lay within 203 to 205 °C.
In turn, `C=CCN1CCCNC1=C[N+](=O)[O-]` showed a melting point of 125 to 126 °C.
For `N=C(N)Nc1nc(CSCCNc2[nH]ccc2[N+](=O)[O-])cs1`, the melting point lay within 196 to 200 °C.
The value for `COc1cc(Br)c(Br)cc1N1CCN(CCCNc2c(C)c(=O)n(C)c(=O)n2C)CC1` was 153 to 155 °C; that for `COc1ccc(-c2ccc(O)c(C34CC5CC(CC(C5)C3)C4)c2)cc1C=C1SC(N2CCOCC2)=NC1=O` was 355 to 360 °C; that for `Cc1c(-c2ccc3oc(SCc4ccccn4)nc3c2)nc2ccccn12` was 116 to 118 °C.
In the case of `CC(C)N(CCC(CCN1CCCCC1)(C(N)=O)c1ccccc1Cl)Cc1ccccc1` (configuration not stated) it was 104 to 111 °C.
As for `CCCCCCCCSc1ccc(CC(NC(C)=O)(C(=O)OCC)C(=O)OCC)cc1`, the melting point fell in the range of 82 to 84 °C.
`COc1cc(Oc2cccc(OC(F)(F)F)c2)nc(C(=O)O)c1`: the melting point lay in the range of 64 to 66 °C.
In the case of `Cc1ccccc1C(=O)NC(NC(=S)Nc1cccnc1)C(C)(C)C` (configuration not stated) it was 186 to 187 °C; in that of `COc1cnccc1-c1csc(Cc2ccccc2)n1`, 76 to 77 °C.
The value for `CC(=O)Nc1nc(CCc2ccc(NC(=N)NN)cc2)cs1` was 216 to 218 °C; that for `CC(C)(CC(=O)C(=O)Nc1ccc2c(c1)COC2=O)c1ccccc1` was 132 to 134 °C; that for `CCOc1ccc2[nH]c3c(c2c1)C[C@@]1(C)C(=O)N(CCBr)C(=O)N1[C@@H]3c1cccc(O)c1` (racemic) was 250 to 252 °C.
In turn, `CNc1nc(OC)ccc1[N+](=O)[O-]` registered a melting point of 152 to 153 °C.
Regarding `Nc1nc(-c2cc(Cl)ccc2Cl)nc(N2C[C@H](O)C[C@H]2CO)n1`, the melting point was 171 to 173 °C.
For `COc1ccc2cc([C@H](C)C(=O)OCC(=O)N(C)CC(=O)OC(C)(C)C)ccc2c1`, the melting point fell in the range of 103 to 104 °C.
The value for `NC(=S)C(c1ccc(Cl)cc1)c1c(Cl)cc(-n2ncc(=O)[nH]c2=O)cc1Cl` (configuration not stated) was 263 °C; that for `COC(=O)c1ncn2c1CN=C(c1ccccc1F)c1cc(Cl)ccc1-2` was 179 to 181 °C.
The compound `C[C@H]1CCCC(C)(C)[C@@H]1C(=O)c1ccco1` came in with a melting point of 81 to 84 °C.
The value for `Nc1c(Cl)cc(C(O)CNCCCCCC(=O)OCCc2ccsc2)cc1Cl` (configuration not stated) was 71 to 73 °C.
